The values below come from patent US11149031B2, “Substituted N-(3-fluoropropyl)-pyrrolidine compounds, processes for their preparation and therapeutic uses thereof” (SANOFI, priority 2016, dated 2021).

Each structure is given as a SMILES string. Read-outs that look alike come from different tables or passages of the source.

Assay [1] concerns the target His6-ERα298-554 WT (ERα ligand-binding domain) (Homo sapiens (Human), UniProt P03372). Kind of assay: Test A: biochemical antagonist activity, LanthaScreen TR-FRET ERα coactivator assay, WT. Particulars: read-out: Antagonism WT IC50. In outline:
(§1)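 His6-ERα LBD (0.5 nM) with 0.5 nM Tb-anti-His6 antibody, 250 nM PGC1a peptide and 3 nM (or 10 nM) estradiol in 100 mM potassium phosphate pH 7.4 with 5 mM DTT, incubated overnight at room temperature with compound.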
(In general: Time-resolved FRET reads energy transfer from a long-lived donor to a nearby acceptor.)

Assay [2] concerns the target His6-ERα298-554 D538G mutant (ERα ligand-binding domain) (Homo sapiens (Human), UniProt P03372, D538G). As to the kind of experiment: Test A: biochemical antagonist activity, LanthaScreen TR-FRET ERα coactivator assay, D538G mutant. The settings on record: read-out: Antagonism D538G IC50. In outline:
as §1

In assay [3] the target is His6-ERα298-554 Y537S mutant (ERα ligand-binding domain) (Homo sapiens (Human), UniProt P03372, Y537S). As to the kind of experiment: Test A: biochemical antagonist activity, LanthaScreen TR-FRET ERα coactivator assay, Y537S mutant. Particulars: read-out: Antagonism Y537S IC50. The procedure, abridged:
as §1

For assay [4], the system named is MCF7 cells (breast tumor cells) WT. Kind of assay: Test B: cell proliferation/viability assay (CellTiter-Glo) on MCF7 WT. The settings on record: Homo sapiens, MCF7, 168 h, 7 days of compound exposure. In kind it is cell-based. In outline:
(§2)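 CellTiter-Glo luminescence after 7-day exposure; % viability = background-corrected RLU of sample relative to untreated. MCF7 WT or ER Tyr 537 Ser/Asp 538 Gly mutant-dependent lines, phenol red-free MEM, 5% charcoal-stripped FBS; 3-0.000001 μM, 9 points.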
(ATP-based viability assays read luminescence as a measure of living cells.)

The subject of assay [5] is MCF7 cells expressing mutant estrogen receptor Tyr 537 Ser. Kind of assay: Test B: cell proliferation/viability assay (CellTiter-Glo) on MCF7 Tyr 537 Ser mutant. In kind it is cell-based. The settings on record: Homo sapiens, MCF7, 168 h, MCF7 cells expressing ER Tyr 537 Ser mutant, 7 days of compound exposure, read-out: proliferation MCF7 Y537S IC50. The procedure, abridged:
as §2

In assay [6] the test system is MCF7 cells expressing mutant estrogen receptor Asp 538 Gly. As to the kind of experiment: Test B: cell proliferation/viability assay (CellTiter-Glo) on MCF7 Asp 538 Gly mutant. In kind it is cell-based. Particulars: Homo sapiens, MCF7, 168 h, MCF7 cells expressing ER Asp 538 Gly mutant, 7 days of compound exposure, read-out: proliferation MCF7 D538G IC50. In outline: as §2

The target in another assay is ERα in MCF7 cells (Homo sapiens (Human), UniProt P03372). Kind of assay: Test C: estrogen receptor degradation activity, ERα in cell western assay in MCF7 cells. The settings on record: for DC50: 4 hours post compound addition, ERα in cell western, read-out: Degradation IC50; for % Degradation at 3 μM: 4 hours, relative to fulvestrant. In kind it is cell-based. The procedure, abridged:
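In-cell western, MCF7, 4 h compound exposure, 3–0.000018 μM final, 9 points, 1:5 steps. Formalin/Triton fix, anti-ER rabbit mAb overnight cold, Alexa 488 secondary plus 2 μM Syto-64. Green intensity = ERα, red = DNA; no-primary wells as background.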

Where [7] appears, read: asterisk (*): protocol using 10 nM estradiol.

Sequence of ERα in MCF7 cells (P03372 whole entry): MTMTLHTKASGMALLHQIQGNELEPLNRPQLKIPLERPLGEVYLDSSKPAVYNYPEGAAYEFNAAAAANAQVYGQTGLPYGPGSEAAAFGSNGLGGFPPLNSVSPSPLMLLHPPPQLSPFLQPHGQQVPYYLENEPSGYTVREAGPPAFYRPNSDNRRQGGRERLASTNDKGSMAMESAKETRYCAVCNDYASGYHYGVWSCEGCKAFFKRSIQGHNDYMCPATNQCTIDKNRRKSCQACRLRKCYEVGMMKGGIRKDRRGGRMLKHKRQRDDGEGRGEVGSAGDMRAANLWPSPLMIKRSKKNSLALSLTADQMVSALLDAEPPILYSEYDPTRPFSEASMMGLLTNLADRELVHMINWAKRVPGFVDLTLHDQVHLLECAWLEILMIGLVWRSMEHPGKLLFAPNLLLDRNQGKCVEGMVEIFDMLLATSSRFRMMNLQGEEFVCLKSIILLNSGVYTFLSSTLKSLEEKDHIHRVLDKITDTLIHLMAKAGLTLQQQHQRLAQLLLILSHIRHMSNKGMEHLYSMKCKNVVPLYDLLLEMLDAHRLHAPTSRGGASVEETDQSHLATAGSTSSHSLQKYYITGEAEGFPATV
Sequence of His6-ERα298-554 Y537S mutant (ERα ligand-binding domain) (P03372 298-554 Y537S): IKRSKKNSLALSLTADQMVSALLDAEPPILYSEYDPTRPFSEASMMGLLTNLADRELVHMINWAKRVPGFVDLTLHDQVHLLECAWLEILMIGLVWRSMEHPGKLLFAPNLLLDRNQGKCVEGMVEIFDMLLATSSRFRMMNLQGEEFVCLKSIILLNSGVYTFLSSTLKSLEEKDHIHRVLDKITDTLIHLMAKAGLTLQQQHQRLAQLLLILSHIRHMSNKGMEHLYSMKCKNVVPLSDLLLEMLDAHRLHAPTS
Sequence of His6-ERα298-554 D538G mutant (ERα ligand-binding domain) (P03372 298-554 D538G): as the sequence (P03372 298-554 Y537S) above, with S240Y, D241G counted along it
Sequence of His6-ERα298-554 WT (ERα ligand-binding domain) (P03372 298-554): as the sequence (P03372 298-554 Y537S) above, with S240Y counted along it

As for `Oc1ccc2c(c1)CCCC(c1ccc(Cl)cc1Cl)=C2c1cnc(O[C@H]2CCN(CCCF)C2)nc1` [Example 238, 6-(2,4-dichlorophenyl)-5-[2-[(3S)-1-(3-fluoropropyl)pyrrolidin-3-yl]oxypyrimidin-5-yl]-8,9-dihydro-7H-benzo[7]annulen-2-ol], the IC50 in assay [1] (setting [7]) came to 3 nM; in assay [2] (setting [7]) it was 59 nM; in assay [3] (setting [7]), 33 nM; in assay [4], 0.3 nM; in assay [5], 3 nM; in assay [6] it was 0.5 nM. The DC50 on ERα in MCF7 cells came to 0.5 nM. The “% Degradation at 3 μM” value on ERα in MCF7 cells was determined as 87%.

Regarding `Oc1ccc2c(c1)CCCC(c1ccc(Cl)cc1Cl)=C2c1ccc(O[C@H]2CCN(CCCF)C2)nc1` [Example 239, 6-(2,4-dichlorophenyl)-5-[6-[(3S)-1-(3-fluoropropyl)pyrrolidin-3-yl]oxy-3-pyridyl]-8,9-dihydro-7H-benzo[7]annulen-2-ol], the IC50 in assay [1] (setting [7]) worked out at 13 nM; in assay [2] (setting [7]), 13 nM; in assay [3] (setting [7]) it was 9 nM; in assay [4] it was 0.3 nM; in assay [5] it was 3 nM; in assay [6], 1 nM. In addition, at ERα in MCF7 cells, the DC50 was 0.6 nM. Also, at ERα in MCF7 cells, the “% Degradation at 3 μM” value turned out to be 87%.

As to `CCOc1ccc(C2=C(c3ccc(O[C@H]4CCN(CCCF)C4)nc3)c3ccc(O)cc3CCC2)c(F)n1` [Example 240, 6-(6-ethoxy-2-fluoro-3-pyridyl)-5-[6-[(3S)-1-(3-fluoropropyl)pyrrolidin-3-yl]oxy-3-pyridyl]-8,9-dihydro-7H-benzo[7]annulen-2-ol], the IC50 in assay [1] (setting [7]) amounted to 6 nM; in assay [2] (setting [7]), 6 nM; in assay [3] (setting [7]), 4 nM; in assay [4], 0.3 nM; in assay [5] it was 3 nM; in assay [6], 0.5 nM. Besides, the DC50 on ERα in MCF7 cells was found to be 0.3 nM. Also, at ERα in MCF7 cells, the “% Degradation at 3 μM” value was determined as 89%.

`Oc1ccc2c(c1)CCCC(c1ccc(OC(F)F)c(F)c1)=C2c1ccc(O[C@H]2CCN(CCCF)C2)nc1` [Example 241, 6-[4-(difluoromethoxy)-3-fluoro-phenyl]-5-[6-[(3S)-1-(3-fluoropropyl)pyrrolidin-3-yl]oxy-3-pyridyl]-8,9-dihydro-7H-benzo[7]annulen-2-ol]: the IC50 in assay [1] (setting [7]) is 1 nM; in assay [2] (setting [7]) it was 27 nM; in assay [3] (setting [7]), 16 nM; in assay [4], 0.1 nM; in assay [5] it was 2 nM; in assay [6], 0.2 nM. The DC50 at ERα in MCF7 cells worked out at 0.2 nM. The “% Degradation at 3 μM” value on ERα in MCF7 cells came out at 85%.

On to `CC1(C)Cc2cc(C3=C(c4ccc(O[C@H]5CCN(CCCF)C5)nc4)c4ccc(O)cc4CCC3)ccc2N1` [Example 242, 6-(2,2-dimethylindolin-5-yl)-5-[6-[(3S)-1-(3-fluoropropyl)pyrrolidin-3-yl]oxy-3-pyridyl]-8,9-dihydro-7H-benzo[7]annulen-2-ol], for which the IC50 worked out at 1 nM in assay [1] (setting [7]); 9 nM in assay [2] (setting [7]); 7 nM in assay [3] (setting [7]); 0.7 nM in assay [4]; 11 nM in assay [5]; 2 nM in assay [6]. At ERα in MCF7 cells, the DC50 was 0.8 nM. At ERα in MCF7 cells, the “% Degradation at 3 μM” value came to 83%.

In the case of `Oc1ccc2c(c1)CCCC(c1ccc(Cl)c(F)c1)=C2c1cnc(O[C@H]2CCN(CCCF)C2)cn1` [Example 243, 6-(4-chloro-3-fluoro-phenyl)-5-[5-[(3S)-1-(3-fluoropropyl)pyrrolidin-3-yl]oxypyrazin-2-yl]-8,9-dihydro-7H-benzo[7]annulen-2-ol], the IC50 came to 12 nM in assay [1] (setting [7]); 386 nM in assay [2] (setting [7]); 179 nM in assay [3] (setting [7]); 0.2 nM in assay [4]; 3 nM in assay [5]; 0.5 nM in assay [6]. Moreover, the DC50 on ERα in MCF7 cells was 0.3 nM. Also, at ERα in MCF7 cells, the “% Degradation at 3 μM” value is 91%.

Regarding `Cc1ccc(C2=C(c3cnc(O[C@H]4CCN(CCCF)C4)nc3)c3ccc(O)cc3CCC2)c(F)c1` [Example 244, 6-(2-fluoro-4-methyl-phenyl)-5-[2-[(3S)-1-(3-fluoropropyl)pyrrolidin-3-yl]oxypyrimidin-5-yl]-8,9-dihydro-7H-benzo[7]annulen-2-ol], the IC50 in assay [1] (setting [7]) was determined as 3 nM; in assay [2] (setting [7]) it was 67 nM; in assay [3] (setting [7]), 34 nM; in assay [4] it was 0.9 nM; in assay [5], 6 nM; in assay [6] it was 2 nM. The DC50 at ERα in MCF7 cells turned out to be 0.4 nM. The “% Degradation at 3 μM” value on ERα in MCF7 cells is 92%.

For the compound `Oc1ccc2c(c1F)CCCC(c1ccc(Cl)cc1Cl)=C2c1ccc(O[C@H]2CCN(CCCF)C2)nc1` [Example 245, 6-(2,4-dichlorophenyl)-1-fluoro-5-[6-[(3S)-1-(3-fluoropropyl)pyrrolidin-3-yl]oxy-3-pyridyl]-8,9-dihydro-7H-benzo[7]annulen-2-ol], the IC50 in assay [1] (protocol with 3 nM estradiol) was 0.4 nM; in assay [2] (protocol with 3 nM estradiol), 4 nM; in assay [3] (protocol with 3 nM estradiol), 3 nM; in assay [4] it was 0.3 nM; in assay [5], 3 nM; in assay [6], 0.1 nM. Also, the DC50 on ERα in MCF7 cells is 0.5 nM. Besides, the “% Degradation at 3 μM” value on ERα in MCF7 cells is 87%.

As for `CCOc1ccc(C2=C(c3cnc(O[C@H]4CCN(CCCF)C4)nc3)c3ccc(O)cc3CCC2)c(F)c1F` [Example 246, 6-(4-ethoxy-2,3-difluoro-phenyl)-5-[2-[(3S)-1-(3-fluoropropyl)pyrrolidin-3-yl]oxypyrimidin-5-yl]-8,9-dihydro-7H-benzo[7]annulen-2-ol], the IC50 in assay [1] (setting [7]) is 2 nM; in assay [2] (setting [7]), 42 nM; in assay [3] (setting [7]) it was 26 nM; in assay [4], 0.4 nM; in assay [5], 7 nM; in assay [6] it was 0.4 nM. Also, the DC50 at ERα in MCF7 cells is 0.5 nM. The “% Degradation at 3 μM” value on ERα in MCF7 cells turned out to be 82%.

As to `O=C(O)c1ccc2c(c1)CCCC(c1ccc(Cl)cc1Cl)=C2c1ccc(O[C@H]2CCN(CCCF)C2)nc1` [Example 247, 6-(2,4-dichlorophenyl)-5-[6-[(3S)-1-(3-fluoropropyl)pyrrolidin-3-yl]oxy-3-pyridyl]-8,9-dihydro-7H-benzo[7]annulene-2-carboxylic acid], the IC50 in assay [1] (setting [7]) was found to be 5 nM; in assay [2] (setting [7]), 136 nM; in assay [3] (setting [7]), 72 nM; in assay [4] it was 0.2 nM; in assay [5] it was 6 nM; in assay [6] it was 0.4 nM. The DC50 on ERα in MCF7 cells came to 0.2 nM. Besides, the “% Degradation at 3 μM” value on ERα in MCF7 cells came out at 93%.

`O=C(O)c1ccc2c(c1)CCCC(c1ccc(OC(F)F)c(F)c1)=C2c1ccc(O[C@H]2CCN(CCCF)C2)nc1` [Example 248, 6-[4-(difluoromethoxy)-3-fluoro-phenyl]-5-[6-[(3S)-1-(3-fluoropropyl)pyrrolidin-3-yl]oxy-3-pyridyl]-8,9-dihydro-7H-benzo[7]annulene-2-carboxylicacid]: the IC50 in assay [1] (setting [7]) amounted to 141 nM; in assay [2] (setting [7]) it was 3440 nM; in assay [3] (setting [7]) it was 1920 nM; in assay [4], 0.7 nM; in assay [5] it was 15 nM; in assay [6] it was 1 nM. On ERα in MCF7 cells, the DC50 turned out to be 0.7 nM. Also, the “% Degradation at 3 μM” value on ERα in MCF7 cells stood at 95%.
